The text below walks through data of patent EP4813989A1, “CRYSTAL, PHARMACEUTICAL COMPOSITION, PREPARATION METHOD THEREFOR, AND USE THEREOF” (TYK Medicines, Inc., priority 2023, dated 2025).

Common to all, as to type: physicochemical
Data set [1] is described as follows: pH-dependent solubility study. Conditions: increasing with rising pH. An excerpt: Following oral administration, the drug can be absorbed at multiple different sites along the gastrointestinal tract (including via the stomach, duodenum, jejunum, ileum, and colon). There is a significant pH change between the stomach (pH 1-3.5) and the small intestine (pH 4-8), resulting in different pH conditions at each absorption site. […] In dissolution studies, it was observed that the sink condition can be satisfied in pH 6.8 medium supplemented with SDS.

Data set [2] is described as follows: Stability study of tablets (40°C/75%RH): related substances. The conditions noted are these: condition N/A. How it is done: The inventors produced tablet 1 (40 mg) and the tablet 2 (10 mg) according to the formulations in Example 1 and Example 2. The above samples were stored under conditions of 40°C/75%RH (open), 40°C/75%RH (sealed), and 40°C/75%RH (sealed+1 g desiccant) to investigate dissolutions and related substances.

Data set [3] is described as follows: Solid form stability on standing (XRD/PLM). An excerpt:
The resulting solid sample was subjected to a corresponding characterization test. An XRD pattern of the sample can be seen in FIG. 8.
A crystal form E sample was obtained by suspending and stirring the amorphous sample prepared in Example 2 in a 1,4-dioxane/n-heptane solvent system at room temperature. XRD results of the sample can be seen in FIG. 9. […] On this basis, it was inferred that the crystal form E was a metastable crystal form.
XRD results of the sample can be seen in FIG. 17.
XRD results of the sample can be seen in FIG. 20. TGA/DSC results can be seen in FIG. 21. […] An ^1H NMR spectrum of the crystal form D was obtained by a test in DMSO-d6, and no obvious solvent residue was observed. […] Based on nuclear magnetic resonance data and heating test results of the sample, it was inferred that the crystal form D was a hydrate crystal form.

Setting [4] is: listed as Active pharmaceutical ingredient^*2.

Regarding `C[C@@H](Nc1ccn2ncc(C3=NOC(C)(C)N3)c2n1)c1cc(F)cc(F)c1F` [TY-2136b, (R)-3-(5,5-dimethyl-4,5-dihydro-1,2,4-oxadiazol-3-yl)-N-(1-(2,3,5-trifluorophenyl)ethyl)pyrazolo[1 ,5-a]pyrimidin-5-amine], in data set [1], the solubility entry was “generally low”.
Regarding `C[C@@H](Nc1ccn2ncc(C3=NOC(C)(C)N3)c2n1)c1cc(F)cc(F)c1F.O` [Active pharmaceutical ingredient], in data set [2], the “Individual impurity (RRT) 0.56” value is reported as less than 0.05%, the “Individual impurity (RRT) 0.66/ 0.67/ 0.69/ 0.70” value was determined as 0.22%, the “Individual impurity (RRT) 0.71/ 0.72/ 0.73/ 0.74” value was found to be 0.18% and the “Individual impurity (RRT) 0.91” value is recorded as less than 0.05%. In data set [2], the “Individual impurity (RRT) 1.02” value stood at 0.27%, the “Individual impurity (RRT) 1.05/ 1.06” value is reported as 0.07%, the “Individual impurity (RRT) 1.07/ 1.08” value came out at 0.18% and the “Individual impurity (RRT) 1.14” value is less than 0.05%. In data set [2], this compound returned a Total impurities of 0.92%. For the same compound, in data set [2] (setting [4]), the “Individual impurity (RRT) 0.71/ 0.72/ 0.73/ 0.74” value is given as 0.19%, the “Individual impurity (RRT) 1.02” value is given as 0.32%, the “Individual impurity (RRT) 1.07/ 1.08” value stood at 0.19% and the Total impurities is given as 0.99%.
`C[C@@H](Nc1ccn2ncc(C3=NOC(C)(C)N3)c2n1)c1cc(F)cc(F)c1F` [crystal form B]: the Solid form stability result in data set [3] (room humidity (17.3%RH), same day) is given as “rapidly transformed into a crystal form C”.
Turning to `C[C@@H](Nc1ccn2ncc(C3=NOC(C)(C)N3)c2n1)c1cc(F)cc(F)c1F` [crystal form D], in data set [3] (heating to 120°C and cooling to room temperature), the Solid form stability result is listed as “transformed into an amorphous form”. The Crystallinity entry in data set [3] (standing sealed at room temperature for 2 days) is on record as “significantly reduced”.
